Patent US20230138327A1, “COMPOSITIONS AND METHODS CONTAINING REDUCED NICOTINAMIDE RIBOSIDE FOR PREVENTION AND TREATMENT OF PANCREATIC DISEASES AND CONDITIONS” (SOCIETE DES PRODUITS NESTLE S.A., priority 2020, published 2023)
Entries after “also recorded” stand apart in the source; their conditions may differ.

Assays:
INS1-cells = assay: NAD+ levels in INS1-cells after NRH treatment; format: cell-based
[1] = Tissue NRH levels in mice after oral gavage (LC-MS); format: in vivo; conditions: oral gavage 250 mg/kg (stable isotope-labelled NRH), 2 hours
Method: (§1) 8 week-old C57BI/6NTac mice were orally gavaged with either saline (as vehicle), and an stable isotope-labelled NRH (250 mg/kg). After 2 hours, pancreas NRH levels were evaluated. All results are expressed as mean+/−SEM of n=4 mice per group, as areas under the signal by LC-MS analysis, corrected by total protein amount of tissue.
as §1, with “and” for “and an stable isotope-labelled”, “liver, skeletal muscle and kidney” for “pancreas”
Levels of NRH and other NAD-related metabolites in biological samples were obtained by using a cold liquid-liquid extraction using a mixture of methanol:water:chloroform in 5:3:5 (v/v), from which the polar phase was recovered for hydrophilic interaction ultra-high performance liquid chromatography mass spectrometry (UHPLC-MS) analysis. The UHPLC consisted of a binary pump, a cooled autosampler, and a column oven (DIONEX Ultimate 3000 UHPLC+ Focused, Thermo Scientific), connected to a triple quadrupole spectrometer (TSQ Vantage, Thermo Scientific) equipped with a heated electrospray ionisation (H-ESI) source. […]

[2] = Circulating NRH, NR and NAM in mice after intraperitoneal injection; format: in vivo
Source text: (§2) Levels of NRH and other NAD-related metabolites in biological samples were obtained by using a cold liquid-liquid extraction using a mixture of methanol:water:chloroform in 5:3:5 (v/v), from which the polar phase was recovered for hydrophilic interaction ultra-high performance liquid chromatography mass spectrometry (UHPLC-MS) analysis. The UHPLC consisted of a binary pump, a cooled autosampler, and a column oven (DIONEX Ultimate 3000 UHPLC+ Focused, Thermo Scientific), connected to a triple quadrupole spectrometer (TSQ Vantage, Thermo Scientific) equipped with a heated electrospray ionisation (H-ESI) source. Of each sample, 2 μL were injected into the analytical column (2.1 mm×150 mm, 5 μm pore size, 200 Å HILICON iHILIC®-Fusion(P)), guarded by a pre-column (2.1 mm×20 mm, 200 Å HILICON iHILIC®-Fusion(P) Guard Kit) operating at 35° C. The mobile phase (10 mM ammonium acetate at pH 9, A, and acetonitrile, B) was pumped at 0.25 mL/min flow rate over a linear gradient of decreasing organic solvent (0.5-16 min, 90-25% B), followed by re-equilibration for a total run time of 30 min. The MS operated in positive mode at 3500 V with multiple reaction monitoring (MRM). The software Xcalibur v4.1.31.9 (Thermo Scientific) was used for instrument control, data acquisition and processing. Retention time and mass detection was confirmed by authentic standards.
The above results prompted us to test whether NRH could act as an effective NAD+ precursor in vivo. For this, we first intraperitoneally (IP) injected mice with either NR or NRH (500 mg/kg). […] Importantly, NRH was detectable in circulation after IP injection.

[3] = Stability of NRH or NR spiked in isolated mouse plasma; format: in vitro ADME
Source text: as §2

3T3 fibroblasts = assay: NAD+ levels in 3T3 fibroblasts after NRH treatment; format: cell-based
mice = assay: Pancreas NAD+ levels in mice after intraperitoneal administration; format: in vivo; conditions: I.P. 500 mg/kg, after 1 hour
Method: 8 week-old C57BI/6NTac mice were intraperitoneally administered with either saline (as vehicle) or NRH (500 mg/kg). After 1 hour, pancreas NAD+ was measured using commercial kits. All results are expressed as mean+/−SEM of n=4 mice per group, corrected by weight of tissue.

Stability in water = format: physicochemical; conditions: pH=7, at room temperature
Method: (§3) NR degradation to NAM has been proposed as a limitation for its pharmacological efficacy. To evaluate whether NRH was also susceptible to degradation to NAM, we spiked NRH or NR in isolated mouse plasma. […] We also tested the stability of NRH in other matrixes. […] Finally, we also certified NRH stability in water (pH=7, at room temperature) for 48 h.

[4] = Method: as §3
AML12 cells = assay: Pathway of NRH-induced NAD+ synthesis: intracellular metabolites and pathway inhibitors; format: cell-based
Method: FIG. 4. NRH leads to NAD+ biosynthesis through an adenosine kinase dependent path. AML12 cells were treated with an adenosine kinase inhibitor (5-IT; […]) for 1 hour prior to NRH treatment at the doses indicated. Then, 1 hour later, acidic extracts were obtained to measure NAD levels. All values in the figure are expressed as mean+/−SEM of 3 independent experiments. * indicates statistical difference at p<0.05 vs. the respective vehicle treated group.
as §2
A path in which NRH would be converted to NMNH, then to NADH and this would be finally oxidized to NAD+.
In order to understand the exact path by which NRH synthesizes NAD+, we initially evaluated whether NRH, could be transported into the cell by equilibrative nucleoside transporters (ENTs).
The action of NRH was also NAMPT-independent, based on experiments using FK866, a NAMPT inhibitor. If NRH led to NAD+ synthesis via the formation of NMNH, this hypothetical path would require the phosphorylation of NRH into NMNH. Given the essential and rate-limiting role of NRK1 in NR phosphorylation, we wondered whether the ability of NRH to boost NAD+ levels was NRK1 dependent. To answer this question, we evaluated NRH action in primary hepatocytes from either control or NRK1 knockout (NRK1KO) mice. […] Further, they rule out the possibility that NRH-induced NAD+ […] is driven by NRH oxidation into NR.
Considering the molecular structure of NRH, we reasoned that an alternative nucleoside kinase could be responsible for the phosphorylation of NRH. […] The role of AK in NRH-mediated NAD+ synthesis was confirmed using a second, structurally different, AK inhibitor, ABT-702. Metabolomic analyses further confirmed that upon inhibition of AK, the generation of NMNH, NADH and NAD+ was fully blunted, even if NRH was effectively entering the cell.
As a follow-up step, NMNAT enzymes could catalyze the transition from NMNH to NADH. […] Yet, part of the NRH action remained after gallotannin treatment when NRH was used at maximal doses.

NC(=O)C1=CN([C@@H]2O[C@H](CO)[C@@H](O)[C@H]2O)C=CC1 [NRH]
NAD+ levels (INS1-cells): highly elevated | NRH levels in pancreas [1]: high levels | NAM levels in circulation ([2]; mice, IP 500 mg/kg): only a very mild increase | NR in circulation ([2]; mouse, in vivo, ip): much higher levels than those detected after NR injection itself | NRH in circulation ([2]; mouse, in vivo, ip): detectable | Compound levels in isolated mouse plasma ([3]; 2 h of incubation): remained stable | Generation of NAM in isolated mouse plasma ([3]; 2 h of incubation): not generated; also recorded: did not significantly alter NAM levels | NR production in isolated plasma ([3]; NRH incubation in isolated plasma): did not lead to NR production | NAD+ levels (3T3 fibroblasts): highly elevated | NAD+ levels in the pancreas (mice): efficiently increases NAD+ levels | Stability in water, duration (Stability in water): 48 h | Degradation to NAM in FBS supplemented media [4]: did not degrade to NAM | Intracellular detection of NRH and NMNH (AML12 cells; 5 minutes after treatment): could be detected | Increase in intracellular NR and NMN (AML12 cells; after NRH treatment, vs NR treatment): greater than that triggered by NR itself | Capacity as extracellular NAD+ precursor under ENT blockage (AML12 cells; in the presence of S-(4-nitrobenzyl)-6-thioinosine (NBTI)): largely lost its capacity | Generation of NMNH, NADH and NAD+ from NRH upon inhibition of AK (AML12 cells; metabolomic analyses): fully blunted | Dependence of NAD+ increase on NAMPT (AML12 cells; with FK866, a NAMPT inhibitor): NAMPT-independent
